# From PubChem BioAssay (NCI)
#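 Abbreviation: GI50, concentration required for 50% inhibition of growth. TGI denotes the concentration required for complete inhibition of growth.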
# Legend:
# Assay in all cases: growth of human tumour cells (NCI), 384-well format
# CAKI-1 renal = system: CAKI-1 renal
# OVCAR-3 ovarian = system: OVCAR-3 ovarian
# PC-3 prostate = system: PC-3 prostate
# A498 renal = system: A498 renal
# EKVX NSCLC = system: EKVX NSCLC
# SN12C renal = system: SN12C renal
# SF-295 CNS = system: SF-295 CNS
# HT29 colon = system: HT29 colon
# DU-145 prostate = system: DU-145 prostate
# MOLT-4 leukemia = system: MOLT-4 leukemia
# U251 glioblastoma = system: U251 glioblastoma
# SR leukemia = system: SR leukemia
# KM12 colon = system: KM12 colon
# HOP-92 NSCLC = system: HOP-92 NSCLC
# MDA-MB-435 melanoma = system: MDA-MB-435 melanoma
# SNB-19 CNS = system: SNB-19 CNS
# SK-MEL-5 melanoma = system: SK-MEL-5 melanoma
# COLO 205 colon = system: COLO 205 colon
# NCI-H226 lung = system: NCI-H226 lung
# NCI-H460 NSCLC = system: NCI-H460 NSCLC
# OVCAR-4 ovarian = system: OVCAR-4 ovarian
# NCI-H522 lung = system: NCI-H522 lung
# SF-268 CNS = system: SF-268 CNS
# SF-539 CNS = system: SF-539 CNS
# MDA-MB-231 breast = system: MDA-MB-231 breast
# 786-0 renal = system: 786-0 renal
# SK-MEL-2 melanoma = system: SK-MEL-2 melanoma
# NCI-H23 lung = system: NCI-H23 lung
# OVCAR-8 ovarian = system: OVCAR-8 ovarian
# ACHN renal = system: ACHN renal
# HCT-15 colon = system: HCT-15 colon
# RXF 393 renal = system: RXF 393 renal
# HOP-62 NSCLC = system: HOP-62 NSCLC
# OVCAR-5 ovarian = system: OVCAR-5 ovarian
# MALME-3M melanoma = system: MALME-3M melanoma
# HCT-116 colon = system: HCT-116 colon
# MDA-MB-468 breast = system: MDA-MB-468 breast
# HCC-2998 colon = system: HCC-2998 colon
# BT-549 breast = system: BT-549 breast
# HS 578T breast = system: HS 578T breast
# NCI/ADR-RES ovarian = system: NCI/ADR-RES ovarian
# UACC-62 melanoma = system: UACC-62 melanoma
# SNB-75 CNS = system: SNB-75 CNS
# SK-MEL-28 melanoma = system: SK-MEL-28 melanoma
# NCI-H322M lung = system: NCI-H322M lung
# SK-OV-3 ovarian = system: SK-OV-3 ovarian
# T-47D breast = system: T-47D breast
# RPMI-8226 leukemia = system: RPMI-8226 leukemia
# SW-620 colon = system: SW-620 colon
# IGROV1 ovarian = system: IGROV1 ovarian
# K-562 leukemia = system: K-562 leukemia
# A549 NSCLC = system: A549 NSCLC
# HL-60(TB) leukemia = system: HL-60(TB) leukemia
# MCF7 breast = system: MCF7 breast
# CCRF-CEM leukemia = system: CCRF-CEM leukemia
# M14 melanoma = system: M14 melanoma
# UACC-257 melanoma = system: UACC-257 melanoma
# TK-10 renal = system: TK-10 renal
smiles,measurement,setting,value
CCn1c(=O)c(-c2ccn[nH]2)cc2c(C)nc(N)nc21,GI50,CAKI-1 renal,0.663 µM
same,TGI,CAKI-1 renal,3.78 µM
same,GI50,OVCAR-3 ovarian,0.853 µM
same,TGI,OVCAR-3 ovarian,4.46 µM
same,GI50,PC-3 prostate,0.369 µM
same,TGI,PC-3 prostate,2.57 µM
same,GI50,A498 renal,0.384 µM
same,TGI,A498 renal,1.97 µM
same,GI50,EKVX NSCLC,0.911 µM
same,TGI,EKVX NSCLC,4.52 µM
same,GI50,SN12C renal,1.22 µM
same,TGI,SN12C renal,> 34.5 µM
same,GI50,SF-295 CNS,1.58 µM
same,TGI,SF-295 CNS,8.64 µM
same,GI50,HT29 colon,2.42 µM
same,TGI,HT29 colon,> 69.5 µM
same,GI50,DU-145 prostate,3.38 µM
same,TGI,DU-145 prostate,> 100 µM
same,GI50,MOLT-4 leukemia,0.587 µM
same,TGI,MOLT-4 leukemia,2.16 µM
same,GI50,U251 glioblastoma,5.62 µM
same,TGI,U251 glioblastoma,97.9 µM
same,GI50,SR leukemia,1.75 µM
same,TGI,SR leukemia,5 µM
same,GI50,KM12 colon,3.39 µM
same,TGI,KM12 colon,38.6 µM
same,GI50,HOP-92 NSCLC,0.201 µM
same,TGI,HOP-92 NSCLC,1.31 µM
same,GI50,MDA-MB-435 melanoma,2.71 µM
same,TGI,MDA-MB-435 melanoma,19.7 µM
same,GI50,SNB-19 CNS,18.1 µM
same,TGI,SNB-19 CNS,> 100 µM
same,GI50,SK-MEL-5 melanoma,1.16 µM
same,TGI,SK-MEL-5 melanoma,4 µM
same,GI50,COLO 205 colon,2.24 µM
same,TGI,COLO 205 colon,7.35 µM
same,GI50,NCI-H226 lung,1.33 µM
same,TGI,NCI-H226 lung,5.51 µM
same,GI50,NCI-H460 NSCLC,0.883 µM
same,TGI,NCI-H460 NSCLC,10.8 µM
same,GI50,OVCAR-4 ovarian,1.39 µM
same,TGI,OVCAR-4 ovarian,11.2 µM
same,GI50,NCI-H522 lung,0.671 µM
same,TGI,NCI-H522 lung,4.23 µM
same,GI50,SF-268 CNS,1.89 µM
same,TGI,SF-268 CNS,15.6 µM
same,GI50,SF-539 CNS,2.97 µM
same,TGI,SF-539 CNS,21.5 µM
same,GI50,MDA-MB-231 breast,0.955 µM
same,TGI,MDA-MB-231 breast,> 23.8 µM
same,GI50,786-0 renal,2.91 µM
same,TGI,786-0 renal,15.7 µM
same,GI50,SK-MEL-2 melanoma,3.22 µM
same,TGI,SK-MEL-2 melanoma,9.87 µM
same,GI50,NCI-H23 lung,1.43 µM
same,TGI,NCI-H23 lung,> 30.2 µM
same,GI50,OVCAR-8 ovarian,2.75 µM
same,TGI,OVCAR-8 ovarian,> 60.4 µM
same,GI50,ACHN renal,2 µM
same,TGI,ACHN renal,8.33 µM
same,GI50,HCT-15 colon,2.36 µM
same,TGI,HCT-15 colon,> 100 µM
same,GI50,RXF 393 renal,0.399 µM
same,TGI,RXF 393 renal,1.9 µM
same,GI50,HOP-62 NSCLC,1.93 µM
same,TGI,HOP-62 NSCLC,11.6 µM
same,GI50,OVCAR-5 ovarian,1.01 µM
same,TGI,OVCAR-5 ovarian,6.83 µM
same,GI50,MALME-3M melanoma,0.456 µM
same,TGI,MALME-3M melanoma,2.03 µM
same,GI50,HCT-116 colon,5.31 µM
same,TGI,HCT-116 colon,> 100 µM
same,GI50,MDA-MB-468 breast,0.358 µM
same,TGI,MDA-MB-468 breast,1.57 µM
same,GI50,HCC-2998 colon,2.19 µM
same,TGI,HCC-2998 colon,13.9 µM
same,GI50,BT-549 breast,0.33 µM
same,TGI,BT-549 breast,2.76 µM
same,GI50,HS 578T breast,0.31 µM
same,TGI,HS 578T breast,1.66 µM
same,GI50,NCI/ADR-RES ovarian,1.58 µM
same,TGI,NCI/ADR-RES ovarian,8 µM
same,GI50,UACC-62 melanoma,1.56 µM
same,TGI,UACC-62 melanoma,10.7 µM
same,GI50,SNB-75 CNS,0.477 µM
same,TGI,SNB-75 CNS,2.4 µM
same,GI50,SK-MEL-28 melanoma,1.14 µM
same,TGI,SK-MEL-28 melanoma,7.22 µM
same,GI50,NCI-H322M lung,2.18 µM
same,TGI,NCI-H322M lung,10.3 µM
same,GI50,SK-OV-3 ovarian,0.562 µM
same,TGI,SK-OV-3 ovarian,2.93 µM
same,GI50,T-47D breast,0.394 µM
same,TGI,T-47D breast,2.04 µM
same,GI50,RPMI-8226 leukemia,0.232 µM
same,TGI,RPMI-8226 leukemia,0.646 µM
same,GI50,SW-620 colon,3.24 µM
same,TGI,SW-620 colon,25.7 µM
same,GI50,IGROV1 ovarian,0.333 µM
same,TGI,IGROV1 ovarian,1.21 µM
same,GI50,K-562 leukemia,6.58 µM
same,TGI,K-562 leukemia,> 100 µM
same,GI50,A549 NSCLC,2.27 µM
same,TGI,A549 NSCLC,9.94 µM
same,GI50,HL-60(TB) leukemia,0.84 µM
same,TGI,HL-60(TB) leukemia,7 µM
same,GI50,MCF7 breast,0.511 µM
same,TGI,MCF7 breast,> 100 µM
same,GI50,CCRF-CEM leukemia,0.434 µM
same,TGI,CCRF-CEM leukemia,2.54 µM
same,GI50,M14 melanoma,2.2 µM
same,TGI,M14 melanoma,> 27.4 µM
same,GI50,UACC-257 melanoma,3.78 µM
same,TGI,UACC-257 melanoma,39.4 µM
same,GI50,TK-10 renal,0.79 µM
same,TGI,TK-10 renal,3.5 µM
